Measured values reported in patent publication US8883752B2, “5′ and 2′ BIS-substituted nucleosides and oligomeric compounds prepared therefrom” (Isis Pharmaceuticals, Inc., priority 2008, dated 2014).
Oligonucleotides are written 5' to 3', each unit as a sugar letter and its base; * is a phosphorothioate linkage, no mark a phosphodiester; rarer units and linkages stand in square brackets, end groups in braces. Plain capitals give the bases only. [DMAEAc-N] = 2'-O-dimethylaminoethyl acetamide sugar (N: the base); [5'R-Me-N] = (R)-5'-methyl-2'-deoxyribonucleoside (N: the base); {Py} = methylenephosphonate group, PO(OH)2CH2-; e = 2'-O-(2-methoxyethyl) (MOE); [5mC] = 5-methylcytosine; d = 2'-deoxy (DNA); m = 2'-O-methyl; {P} = phosphate; f = 2'-fluoro

What was measured:
PTEN mRNA = PTEN mRNA levels in liver of Balb/c mice after single i.p. injection (Example 65); assay type: in vivo, mouse; settings: 48 h; for Inhibition of PTEN in vivo (in words): 75 mg/kg; for % inhibition of PTEN mRNA expression: liver, single i.p. 75 mg/kg, normalized to saline-injected control
Experimental: In accordance with the present disclosure, oligomeric compounds were synthesized and tested for their ability to reduce PTEN expression in vivo at dose of 75 mg/kg. Six week old male Balb/c mice (Jackson Laboratory, Bar Harbor, Me.) were administered a single intraperitoneal (i.p) injection at 75 mg/kg of ISIS 467074 having a 5′-phosphate group and […] having a 5′-methylenephosphonate group, (PO(OH)2CH2—). A 5-10-5 gapped oligomer, ISIS 116847 having 2′-O-MOE modified nucleosides in wings with a 5′-phosphorothioate group was included for comparison.
Each dose group consisted of four animals. The mice were sacrificed 48 hours following the final administration to determine the PTEN mRNA levels in liver using real-time PCR and RIBOGREEN® RNA quantification reagent (Molecular Probes, Inc. Eugene, Oreg.) according to standard protocols. PTEN mRNA levels were determined relative to total RNA (using Ribogreen), prior to normalization to saline-treated control. Results are listed below as the average % inhibition of PTEN mRNA expression for each treatment group, normalized to saline-injected control.

[1] = In vivo stability: tissue level of intact compound (Example 66); parameters: species or system mouse; settings: Balb/c mice
Experimental: […] were homogenized in a homogenation buffer (20 mM Tris, pH 8, 20 mM EDTA and 0.1 M NaCl in 0.5% NP-40) at time points 0, 5, 10, 20, 30, 40 and 60 minutes (Exception: 06/408877 at time points 0, 15, 30, 60, 120 and 240 mins, 06/409044, at time points 0, 0.5, 1, 2, 4, 8, and 18 hours). An internal standard (18/355868, a 27-mer, 2′-O-methoxyethyl-modified phosphorothioate oligonucleotide, or 19/116847, a 5-10-5 gapmer, 2′-O-methoxyethyl-modified phosphorothioate oligonucleotide) with concentration at 20 μg/g was added prior to extraction. Tissue samples were extracted with 70 μL of NH4OH and 240 μL of phenol/chloroform/isoamyl alcohol (25:24:1). The supernatant was removed after centrifugation at 14000 rpm for […]. The remaining extractant was vortexed with an additional 500 μL of water and the aqueous layer was removed and combined with the supernatant after centrifugation at 14000 rpm for 2 minutes.
Triethylammonium acetate solution at 1M (500 μL) was added to the supernatant. The aqueous layer of the mixture was loaded onto the pre-conditioned Biotage™ Phenyl Solid Phase Extraction Plate (SPE plate) after centrifugation at 9000 rpm for 20 minutes. The SPE plate was washed several times with water. The sample was then eluted with 1.5 mL of 1% TEA in 90% MeOH and filtered through the Protein Precipitation Plate (Phenomenex™). The elutent was evaporated to dryness and diluted to 200 μL with 50% quenching buffer (8 M urea, 50 mM EDTA) and water before sample injection.
An Agilent 1100 Series LC/MSD system was connected in-line to a mass spectrometry. Mass spectrometer was operated in the electrospray negative ionization mode. The nebulizer nitrogen gas was set at […] and the drying nitrogen gas was set at 12 L/min. The drying temperature was 325° C. Samples (25 μL/well) were introduced via an auto sampler and reversed-phase chromatography was carried out with an)(Bridge OST C18 2.5 μm 2.1 mm×50 mm HPLC column using a flow rate of 300 μL/min at 55° C. The ion pair buffers consisted of A: 5 mM tributylammonium acetate (TBAA) in 20% acetonitrile and B: […] TBAA in 90% acetonitrile and the loading buffer was 25 mM TBAA in 25% Acetonitrile. Separation was performed on a 30% to 70% B in 9 min and then 80% B in 11 min gradient.
Quantitative analysis of oligonucleotide and internal standard by extracted ion chromatograms of the most abundant ions was performed using MSD ChemStation software.
The in vivo stability of the three oligomeric compounds in Example 65 was evaluated. The tissue samples were obtained from the animals in which PTEN was assessed. Tissue samples were collected and prepared using the same technique described in Example 64. Quantitative analysis of the oligonucleotides standard were performed by extracted ion chromatograms in the most abundant charge state (−4) using Chemstation software. The tissue level (μg/g) of intact compound of ISIS 116847, 467074 and 467076 was measured and are provided below.

[2] = Modified ssRNA 5′-phosphate serum stability assay; assay type: in vitro ADME; settings: 10 μM in 95% fresh mouse serum, 37° C., 0-24 h, LC/MS
From the text: A serum stability assay is useful for evaluating the stability of oligomeric compounds in the presences of nucleases and other enzymes found in serum. For example, the stability of a 5′-terminal phosphate group of an oligomeric compound can be evaluated by assessing the ability of the 5′-terminal phosphate group to remain attached to the oligomeric compound in the presence of serum. Accordingly, a serum stability assay was employed to evaluate the stability of modified ssRNAs having a 5′-terminal phosphate group.
Various modified ssRNAs, shown below, having a 5′-terminal phosphate group (10 μM) were dissolved in 95% of fresh mouse serum and incubated at 37° C. Aliquots of serum (100 μL) were removed after 0, 1, 3, 6 or 24 hours of incubation times. The serum samples were immediately quenched and snap frozen. The samples were extracted by the strong anion exchange (SAX) and octadecylsilyl (C-18) columns. For each incubation time, the amount of full length modified ssRNA having a 5′-terminal phosphate group was determined by LC/MS, and the half-life of the full length modified ssRNA having a 5′ terminal phosphate group was calculated. The results are expressed as half-time (T1/2) in the table below.

| Substance | Inhibition of PTEN in vivo (in words) (PTEN mRNA) | % inhibition of PTEN mRNA expression (PTEN mRNA) [%] | Tissue Level of intact compound ([1]; 75 mg/kg i.p., 48 h time point, LC-MS) [µg/g] | Level of intact compound in tissue (in words) ([1]; 75 mg/kg, 48 h) | T1/2 (h) of full length modified ssRNA having a 5′-terminal phosphate group [2] [h] | Compound lacking the 5′-phosphate in tissue ([1]; 75 mg/kg, 48 h) |
| --- | --- | --- | --- | --- | --- | --- |
| ISIS 116847: 5-10-5 gapped oligomer with 2′-O-MOE wings, included for comparison: meCeTeGemeCeTeAGmeCmeCTmeCTGGATeTeTeGeAe (e[5mC]*eT*eG*e[5mC]*eT*dA*dG*d[5mC]*d[5mC]*dT*d[5mC]*dT*dG*dG*dA*eT*eT*eT*eG*eA) [reference compound] | potent inhibitor of PTEN | 76 | 131.1 | present at high levels | – | – |
| ISIS 398701: modified ssRNA, SEQ ID NO 09: P-USfUfGfUfCfUfCfUfGfGfUfCfCfUfUfAfCfUfUf (antisense UUGUCUCUGGUCCUUACUU; 5'-phosphate, 2'-fluoro, phosphorothioate, chemistry not fully specified) | – | – | – | – | 18.2 | – |
| ISIS 404320: modified ssRNA targeting PTEN, SEQ ID NO 05: P-UfUfGfUfCfUfCfUfGfGfUfCfCfUfUfAfCfUfUfAeAe (antisense {P}-fUfUfGfUfCfUfCfUfGfGfUfCfCfU*fU*fA*fC*fU*fU*eA*eA; single-stranded RNA for RNAi) | – | – | – | – | 4 | – |
| ISIS 422391: modified ssRNA, SEQ ID NO 06: P-TdUfGfUfCfUfCfUfGfGfUfCfCfUfUfAfCfUfUfAeAe; d = 2′-O-DMAEAc (antisense {P}-[DMAEAc-T]fUfGfUfCfUfCfUfGfGfUfCfCfU*fU*fA*fC*fU*fU*eA*eA; single-stranded RNA for RNAi) | – | – | – | – | 6.5 | – |
| ISIS 432356: modified ssRNA, SEQ ID NO 06: P-TRUfGfUfCfUfCfUfGfGfUfCfCfUfUfAfCfUfUfAeAe; R = (R)-5′-methyl-2′-deoxyribonucleoside (antisense {P}-[5'R-Me-T]fUfGfUfCfUfCfUfGfGfUfCfCfU*fU*fA*fC*fU*fU*eA*eA; single-stranded RNA for RNAi) | – | – | – | – | 8.7 | – |
| ISIS 467074: modified ssRNA, SEQ ID NO 06: P-TScUfGmUfCmUfCmUfGmGfUmCfCmUfUmAfCmUfUmAeAe (antisense TUGUCUCUGGUCCUUACUUAA; 5'-phosphate, modified sugars, 2'-F/2'-OMe, MOE, chemistry not fully specified) | lowest amount of PTEN reduction | 11 | – | not detected | – | lacking the 5′-phosphate was detected |
| ISIS 467076: 5′-methylenephosphonate ssRNA, SEQ ID NO 05: Py-meUmUfGmUfCmUfCmUfGmGfUmCfCmUfUmAfCmUfUmAeAe (antisense {Py}-mT*fU*mGfU*mCfU*mCfU*mGfG*mUfC*mCfU*mU*fA*mC*fU*mU*eA*eA; further chemistry not fully specified) | smaller inhibition of PTEN | 16 | – | present at a lower concentration | – | – |
